From ChEMBL document CHEMBL1201862, “PubChem BioAssay data set” (2004)
Activity calls are given as the source filed them.

Experiments:
[1] = HepG2 cell cytotoxicity, dose response, cytotoxicity control for Shn3 inhibitor project, CellTiter-Glo, cherry-picked (AID 624134); assay type: functional, cell-based
[2] = Shn3 3'UTR reporter inhibitors, dose response, cell-based, Clone20 osteoblasts, firefly luciferase, cherry-picked (AID 624132); assay type: functional;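 note: firefly luciferase luminescence from reporter carrying the Shn3 3'UTR in osteoblasts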
[3] = target: Protein Wnt-3a (Mus musculus, UniProt P27467); assay: Wnt3a-driven reporter signaling inhibition, dose response, selectivity assay for Gli-SUFU antagonist project, Wnt-LIGHT cells, luminescence (AID 651570); assay type: functional; conditions: read-out: IC50_Mean;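 note: Wnt-LIGHT reporter cells stimulated with conditioned medium from Wnt3a-producing cells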
[4] = tested on: INS1; assay: beta cell apoptosis inhibitors, cytokine rescue, dose response, luminescence, retest (AID 449756); assay type: functional, cell-based; conditions: Rattus norvegicus;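 note: cell death triggered by IL-1 beta plus TNF-alpha plus IFN-gamma mixture; protective hits raise ATP signal compared with cytokine alone wells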
[5] = target: Hepatocyte nuclear factor 4-alpha (Homo sapiens, UniProt P41235); assay type: functional, cell-based;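 note: biochemical luminescence-based dose-response counterscreen measuring inhibition of HNF4 dimerization, run alongside a screen for blockers of ABHD5–perilipin-5 interaction; split luciferase complementation of HNF4 fusion proteins in cell lysate measuring dimerization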
[6] = target: Low molecular weight phosphotyrosine protein phosphatase (Homo sapiens, UniProt P24666); assay type: functional; conditions: read-out: IC50_Mean;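 note: Dose-response confirmation assay measuring inhibition of LMPTP enzyme activity by fluorescence intensity read-out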
[7] = cytotoxicity toward NIH3T3 fibroblasts, dose response, counter-screen, cell-based, ATP luminescence, mouse fibroblasts (AID 2010); assay type: functional;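 note: cells exposed to compound for about 90 hours before reading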
[8] = inhibitors of intracellular T. cruzi replication, confirmation, NIH3T3 host cells, beta-gal luminescence (AID 2044); assay type: functional, cell-based;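 note: intracellular parasites grown in NIH/3T3 mouse fibroblasts as host cells; luminescent beta-galactosidase reporter signal from transgenic T. cruzi replicating inside host cells; inhibitors lower the luminescence signal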
[9] = target: Nuclear receptor subfamily 5 group A member 2 (Homo sapiens, UniProt O00482); assay type: functional, cell-based;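 note: HEK293T cells transfected with LRH-1 and a StAR promoter luciferase reporter; potency for inhibitors that lower LRH-1 driven reporter light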
[10] = target: Steroidogenic factor 1 (Homo sapiens, UniProt Q13285); assay: Counterscreen for inverse agonists of the liver receptor homolog-1 (LRH-1; NR5A2): Luminescence-based cell-based high throughput dose response assay to identify inverse agonists of the Steroidogenic Factor 1 Nuclear Receptor (SF1; NR5A1).; assay type: functional
[11] = StAR promoter reporter inhibition counter-screen, dose response, counter-screen for LRH-1 inverse agonist project, cell-based, luminescence, luciferase reporter (AID 651969); assay type: functional
[12] = target: Cytochrome P450 2C9 (Homo sapiens, UniProt P11712)
[13] = target: Peroxisome proliferator-activated receptor gamma/Nuclear receptor coactivator 3 (Homo sapiens, UniProt P37231); assay: TR-FRET dose response biochemical High Throughput Screening assay for agonists of the steroid receptor coactivator 3 (SRC-3) recruitment by the peroxisome proliferator-activated receptor gamma (PPAR gamma): non-selective agonists. [Related pubchem assays: 1301 (Confirmation screen.), 1048 (Primary screen.)]; assay type: functional
[14] = Luminescence Cell-Based Dose Retest to Confirm Inhibitors of Cancer Stem Cells. [Related pubchem assays (depositor defined):AID2717, AID2721]; assay type: functional; conditions: Homo sapiens
[15] = target: Photoreceptor-specific nuclear receptor (Homo sapiens, UniProt Q9Y5X4); assay type: functional, cell-based;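 note: CHO-S cells with Gal4-NCOR and VP16-NR2E3 two-hybrid luciferase reporter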
[16] = target: Peroxisome proliferator-activated receptor gamma/Nuclear receptor coactivator 2 (Homo sapiens, UniProt P37231); assay: TR-FRET dose response biochemical High Throughput Screening assay for agonists of the steroid receptor coactivator 2 (SRC-2) recruitment by the peroxisome proliferator-activated receptor gamma (PPAR gamma): non-selective agonists. [Related pubchem assays: 1297, 1032 ]; assay type: functional
[17] = target: Peroxisome proliferator-activated receptor gamma/Nuclear receptor coactivator 1 (Homo sapiens, UniProt P37231); assay: TR-FRET dose response biochemical High Throughput Screening assay for agonists of the steroid receptor coactivator 1 (SRC-1) recruitment by the peroxisome proliferator-activated receptor gamma (PPAR gamma): non-selective agonists. [Related pubchem assays (depositor defined):AID1300, AID1808, AID504735, AID631]; assay type: protein assay
[18] = target: Mitogen-activated protein kinase 10 (Homo sapiens, UniProt P53779); assay: Dose response biochemical screening assay for inhibitors of c-Jun N-Terminal Kinase 3 (JNK3). [Related pubchem assays: 746 ]
[19] = target: Ras and Rab interactor 1/Tyrosine-protein kinase ABL1 (Homo sapiens, UniProt P00519+Q13671); assay type: functional;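 note: biochemical TR-FRET dose-response test measuring inhibition of binding between Rin1 and Abl proteins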
[20] = target: T1, Orexin/Hypocretin receptor type 1 (Homo sapiens, UniProt O43613); assay: Fluorescence-based cell-based high throughput dose response assay for antagonists of the orexin 1 receptor (OX1R; HCRTR1). [Related pubchem assays (depositor defined):AID434989, AID435008, AID463079, AID485270, AID492963, AID492964, AID492965, AID493232, AID504717, AID504718]; assay type: functional
T1 sequence (O43613 whole entry): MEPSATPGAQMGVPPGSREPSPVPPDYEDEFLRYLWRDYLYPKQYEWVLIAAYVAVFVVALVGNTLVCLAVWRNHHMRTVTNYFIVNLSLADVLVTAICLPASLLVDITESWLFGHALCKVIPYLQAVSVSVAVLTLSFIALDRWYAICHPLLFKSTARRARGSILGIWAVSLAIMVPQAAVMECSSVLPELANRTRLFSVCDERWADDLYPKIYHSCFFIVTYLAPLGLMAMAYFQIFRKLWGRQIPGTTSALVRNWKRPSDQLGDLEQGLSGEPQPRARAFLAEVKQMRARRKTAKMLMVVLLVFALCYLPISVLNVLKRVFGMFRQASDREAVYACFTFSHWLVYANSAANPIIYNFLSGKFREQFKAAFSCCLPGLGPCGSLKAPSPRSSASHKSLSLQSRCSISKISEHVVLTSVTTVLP

[21] = target: T2, Orexin receptor type 2 (Homo sapiens, UniProt O43614); assay: Counterscreen assay for antagonists of the orexin 1 receptor (OX1R; HCRTR1): Homogeneous Time Resolved Fluorescence (HTRF)-based cell-based dose response assay for antagonists of the orexin 2 receptor (OX2R; HCRTR2), run by assay provider.; assay type: functional
T2 sequence (O43614 whole entry): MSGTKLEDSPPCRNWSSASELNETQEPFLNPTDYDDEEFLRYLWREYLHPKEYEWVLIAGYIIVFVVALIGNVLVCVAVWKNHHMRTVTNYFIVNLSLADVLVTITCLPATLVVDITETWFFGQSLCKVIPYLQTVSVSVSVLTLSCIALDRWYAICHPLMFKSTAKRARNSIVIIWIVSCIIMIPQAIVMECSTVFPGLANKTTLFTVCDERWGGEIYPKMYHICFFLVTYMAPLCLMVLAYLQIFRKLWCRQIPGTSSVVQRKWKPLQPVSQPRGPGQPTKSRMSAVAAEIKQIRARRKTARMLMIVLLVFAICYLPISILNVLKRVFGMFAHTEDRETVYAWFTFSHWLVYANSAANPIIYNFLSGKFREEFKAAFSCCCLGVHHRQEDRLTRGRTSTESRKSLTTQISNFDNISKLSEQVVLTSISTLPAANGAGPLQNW

[22] = target: T1, Orexin/Hypocretin receptor type 1; assay: Homogeneous Time Resolved Fluorescence (HTRF)-based cell-based high throughput dose response assay for antagonists of the orexin 1 receptor (OX1R; HCRTR1). [Related pubchem assays (depositor defined):AID434989, AID435008, AID463079, AID485270, AID492963, AID492964, AID492965, AID493232, AID504717, AID504718]; assay type: functional
[23] = Counterscreen for antagonists of the orexin 1 receptor (OX1R; HCRTR1): Fluorescence-based cell-based high throughput dose response assay to identify antagonists of the parental CHO cell line. [Related pubchem assays (depositor defined):AID434989, AID435008, AID463079, AID485270, AID492963, AID492964, AID492965, AID493232, AID504699, AID504701]; assay type: functional
[24] = target: T2, Orexin receptor type 2; assay: Counterscreen assay for antagonists of the orexin 1 receptor (OX1R; HCRTR1): Fluorescence-based cell-based dose response assay for antagonists of the orexin 2 receptor (OX2R; HCRTR2), run by assay provider.; assay type: functional
[25] = tested on: CHO-K1; assay: Counterscreen for antagonists of the orexin 1 receptor (OX1R; HCRTR1): Homogeneous time resolved fluorescence (HTRF)-based cell-based dose response assay to identify antagonists of the parental CHO-K1 cell line. [Related pubchem assays (depositor defined):AID434989, AID435008, AID463079, AID485270, AID492963, AID492964, AID492965, AID493232, AID504699, AID504701]; assay type: functional; conditions: Cricetulus griseus;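 note: potency for inhibition of ATP-stimulated IP1 production as antagonists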
[26] = HEp-2 cell cytotoxicity, dose response, cytotoxicity control for RSV inhibitor project, HTS (AID 2410); assay type: functional; conditions: human respiratory syncytial virus
[27] = target: T3, Heat shock factor protein 1 (Mus musculus, UniProt P38532); assay: inhibition of MG132-induced HSE-luciferase signal, confirmation, cell-based, NIH3T3, luminescence, dose retest (AID 2382); assay type: functional;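 note: NIH3T3 fibroblasts with HSF1-driven luciferase reporter stressed by proteasome inhibitor MG132; luminescence from HSF1-driven luciferase expression after 8 hours of MG132 stress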
T3 sequence (P38532 whole entry): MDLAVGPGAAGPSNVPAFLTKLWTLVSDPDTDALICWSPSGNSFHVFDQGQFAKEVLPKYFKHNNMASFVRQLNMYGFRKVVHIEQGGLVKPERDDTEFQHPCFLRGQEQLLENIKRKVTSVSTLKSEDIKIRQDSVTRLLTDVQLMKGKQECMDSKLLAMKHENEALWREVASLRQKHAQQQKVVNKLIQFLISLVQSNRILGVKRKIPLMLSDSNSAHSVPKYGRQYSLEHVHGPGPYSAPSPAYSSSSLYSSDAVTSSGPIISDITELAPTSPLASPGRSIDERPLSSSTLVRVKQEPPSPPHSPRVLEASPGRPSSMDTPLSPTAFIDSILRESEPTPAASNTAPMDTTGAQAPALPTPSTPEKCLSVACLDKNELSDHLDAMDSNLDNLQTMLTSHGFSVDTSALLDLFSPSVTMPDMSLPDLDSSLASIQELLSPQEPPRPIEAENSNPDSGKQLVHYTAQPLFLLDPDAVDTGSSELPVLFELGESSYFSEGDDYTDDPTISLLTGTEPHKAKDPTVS

[28] = target: Mitochondrial peptide methionine sulfoxide reductase (Bos taurus, UniProt P54149); assay type: functional;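 note: absorbance read-out, biochemical high-throughput dose-response screen for MsrA inhibitors, confirmatory; recombinant bovine MsrA coupled to E. coli TrxB with NADPH and selenocystamine; potency is for inhibitors of MsrA activity on DMSO substrate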
Chain of Mitochondrial peptide methionine sulfoxide reductase (P54149 whole entry): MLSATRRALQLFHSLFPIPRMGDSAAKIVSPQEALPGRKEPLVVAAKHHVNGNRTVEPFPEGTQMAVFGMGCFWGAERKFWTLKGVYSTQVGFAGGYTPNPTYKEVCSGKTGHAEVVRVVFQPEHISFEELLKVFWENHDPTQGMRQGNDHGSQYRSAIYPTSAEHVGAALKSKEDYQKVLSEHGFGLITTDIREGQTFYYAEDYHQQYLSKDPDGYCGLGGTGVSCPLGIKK

Chain of Protein Wnt-3a (P27467 whole entry): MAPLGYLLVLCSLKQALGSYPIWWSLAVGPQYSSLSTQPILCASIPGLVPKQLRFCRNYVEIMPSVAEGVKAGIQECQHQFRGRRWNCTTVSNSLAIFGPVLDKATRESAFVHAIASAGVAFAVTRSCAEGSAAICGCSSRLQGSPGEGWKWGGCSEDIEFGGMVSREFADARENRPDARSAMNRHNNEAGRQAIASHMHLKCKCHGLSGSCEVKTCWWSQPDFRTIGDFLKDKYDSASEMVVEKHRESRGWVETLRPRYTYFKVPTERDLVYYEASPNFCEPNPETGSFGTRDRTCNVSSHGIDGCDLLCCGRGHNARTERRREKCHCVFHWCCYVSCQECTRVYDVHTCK
Chain of Low molecular weight phosphotyrosine protein phosphatase (P24666 whole entry): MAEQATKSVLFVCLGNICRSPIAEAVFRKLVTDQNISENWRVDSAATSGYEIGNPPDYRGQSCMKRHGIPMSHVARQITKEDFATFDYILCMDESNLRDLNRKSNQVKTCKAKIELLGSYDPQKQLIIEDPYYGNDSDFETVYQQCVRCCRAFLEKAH
Chain of Ras and Rab interactor 1/Tyrosine-protein kinase ABL1 (P00519 whole entry): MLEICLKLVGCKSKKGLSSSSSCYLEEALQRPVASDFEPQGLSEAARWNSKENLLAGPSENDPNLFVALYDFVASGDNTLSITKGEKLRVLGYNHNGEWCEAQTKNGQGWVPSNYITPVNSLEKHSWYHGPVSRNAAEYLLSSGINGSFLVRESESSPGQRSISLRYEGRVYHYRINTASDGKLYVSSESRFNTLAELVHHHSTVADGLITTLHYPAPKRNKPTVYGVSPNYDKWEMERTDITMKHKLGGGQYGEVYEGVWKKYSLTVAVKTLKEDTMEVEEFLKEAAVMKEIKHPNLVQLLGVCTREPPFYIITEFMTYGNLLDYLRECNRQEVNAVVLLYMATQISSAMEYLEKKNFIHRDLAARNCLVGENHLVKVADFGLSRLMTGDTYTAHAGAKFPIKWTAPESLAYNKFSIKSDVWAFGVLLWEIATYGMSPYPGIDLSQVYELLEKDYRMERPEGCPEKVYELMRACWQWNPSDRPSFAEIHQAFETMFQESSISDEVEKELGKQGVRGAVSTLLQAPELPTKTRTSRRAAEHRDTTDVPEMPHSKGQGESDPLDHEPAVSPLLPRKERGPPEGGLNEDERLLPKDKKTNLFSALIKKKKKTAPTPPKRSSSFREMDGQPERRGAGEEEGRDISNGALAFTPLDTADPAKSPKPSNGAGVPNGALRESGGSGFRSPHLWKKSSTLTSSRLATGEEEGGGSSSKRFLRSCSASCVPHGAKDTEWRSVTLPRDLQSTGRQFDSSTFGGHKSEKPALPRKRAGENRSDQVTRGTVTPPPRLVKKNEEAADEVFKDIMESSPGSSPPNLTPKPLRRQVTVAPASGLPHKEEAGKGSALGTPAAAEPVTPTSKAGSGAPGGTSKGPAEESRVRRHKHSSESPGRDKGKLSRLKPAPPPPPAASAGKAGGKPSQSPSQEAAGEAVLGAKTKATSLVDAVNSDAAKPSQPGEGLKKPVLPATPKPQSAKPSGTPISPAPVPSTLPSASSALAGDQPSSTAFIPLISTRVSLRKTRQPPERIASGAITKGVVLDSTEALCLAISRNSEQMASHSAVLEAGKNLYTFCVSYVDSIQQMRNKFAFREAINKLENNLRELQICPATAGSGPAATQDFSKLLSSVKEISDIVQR
Chain of Ras and Rab interactor 1/Tyrosine-protein kinase ABL1 (Q13671 whole entry): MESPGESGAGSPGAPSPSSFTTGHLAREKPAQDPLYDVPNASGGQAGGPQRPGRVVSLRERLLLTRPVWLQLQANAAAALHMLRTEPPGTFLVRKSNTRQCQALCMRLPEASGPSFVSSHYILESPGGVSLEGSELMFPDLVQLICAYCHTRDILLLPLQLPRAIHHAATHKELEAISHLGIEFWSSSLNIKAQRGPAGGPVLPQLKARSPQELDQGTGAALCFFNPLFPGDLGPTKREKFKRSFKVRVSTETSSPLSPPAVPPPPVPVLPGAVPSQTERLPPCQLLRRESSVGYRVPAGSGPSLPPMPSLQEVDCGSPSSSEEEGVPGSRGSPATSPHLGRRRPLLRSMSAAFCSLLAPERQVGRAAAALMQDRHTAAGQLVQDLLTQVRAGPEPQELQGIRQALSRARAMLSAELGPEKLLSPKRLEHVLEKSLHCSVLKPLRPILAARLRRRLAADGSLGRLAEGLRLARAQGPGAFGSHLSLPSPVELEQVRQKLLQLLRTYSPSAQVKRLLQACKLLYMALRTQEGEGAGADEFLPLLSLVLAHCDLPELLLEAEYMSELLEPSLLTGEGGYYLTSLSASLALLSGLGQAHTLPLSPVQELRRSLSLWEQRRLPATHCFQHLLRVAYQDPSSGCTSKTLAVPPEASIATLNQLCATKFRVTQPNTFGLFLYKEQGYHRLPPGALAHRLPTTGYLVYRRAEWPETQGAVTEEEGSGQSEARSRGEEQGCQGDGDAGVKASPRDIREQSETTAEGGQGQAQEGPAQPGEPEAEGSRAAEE
Chain of Nuclear receptor subfamily 5 group A member 2 (O00482 whole entry): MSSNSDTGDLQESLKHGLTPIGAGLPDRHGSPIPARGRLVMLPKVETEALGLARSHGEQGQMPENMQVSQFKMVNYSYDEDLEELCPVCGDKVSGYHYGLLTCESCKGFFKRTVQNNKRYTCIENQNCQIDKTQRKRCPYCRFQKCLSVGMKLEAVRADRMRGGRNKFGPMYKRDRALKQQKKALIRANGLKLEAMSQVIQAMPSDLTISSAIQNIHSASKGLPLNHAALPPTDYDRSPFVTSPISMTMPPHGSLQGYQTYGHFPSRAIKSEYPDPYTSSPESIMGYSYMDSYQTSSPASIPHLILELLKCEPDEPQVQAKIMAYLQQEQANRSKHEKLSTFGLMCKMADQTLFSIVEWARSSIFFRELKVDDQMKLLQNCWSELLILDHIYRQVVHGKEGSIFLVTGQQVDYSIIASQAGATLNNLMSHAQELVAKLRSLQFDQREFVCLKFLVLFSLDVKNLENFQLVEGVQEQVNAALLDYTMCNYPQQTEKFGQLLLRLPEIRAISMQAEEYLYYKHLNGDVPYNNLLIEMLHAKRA
Chain of Steroidogenic factor 1 (Q13285 whole entry): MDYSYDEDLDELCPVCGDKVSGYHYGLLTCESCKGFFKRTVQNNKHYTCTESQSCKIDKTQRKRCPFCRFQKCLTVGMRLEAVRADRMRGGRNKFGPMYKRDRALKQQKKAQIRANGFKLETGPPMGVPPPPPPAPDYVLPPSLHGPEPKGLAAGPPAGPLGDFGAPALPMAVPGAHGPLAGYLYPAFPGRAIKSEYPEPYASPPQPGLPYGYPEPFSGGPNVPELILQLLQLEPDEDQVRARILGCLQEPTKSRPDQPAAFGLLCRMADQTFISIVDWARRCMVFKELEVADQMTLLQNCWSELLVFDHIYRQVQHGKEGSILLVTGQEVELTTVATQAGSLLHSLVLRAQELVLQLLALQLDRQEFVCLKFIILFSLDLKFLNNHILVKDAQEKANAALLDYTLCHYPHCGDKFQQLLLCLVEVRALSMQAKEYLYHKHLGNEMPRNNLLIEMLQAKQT
Chain of Mitogen-activated protein kinase 10 (P53779 whole entry): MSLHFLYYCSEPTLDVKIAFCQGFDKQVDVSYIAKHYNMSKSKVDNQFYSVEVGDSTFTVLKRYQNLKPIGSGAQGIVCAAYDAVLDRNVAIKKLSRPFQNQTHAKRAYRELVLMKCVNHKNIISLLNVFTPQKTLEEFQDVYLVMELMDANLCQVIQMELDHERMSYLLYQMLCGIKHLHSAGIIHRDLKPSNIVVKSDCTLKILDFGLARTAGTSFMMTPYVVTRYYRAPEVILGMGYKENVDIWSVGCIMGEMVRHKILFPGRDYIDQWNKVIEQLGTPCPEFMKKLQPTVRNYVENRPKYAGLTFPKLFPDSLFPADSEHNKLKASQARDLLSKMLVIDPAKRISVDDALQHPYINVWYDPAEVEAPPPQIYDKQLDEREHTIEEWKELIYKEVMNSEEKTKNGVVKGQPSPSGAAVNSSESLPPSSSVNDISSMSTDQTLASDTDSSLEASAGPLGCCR
Chain of Photoreceptor-specific nuclear receptor (Q9Y5X4 whole entry, the tested form may be a part): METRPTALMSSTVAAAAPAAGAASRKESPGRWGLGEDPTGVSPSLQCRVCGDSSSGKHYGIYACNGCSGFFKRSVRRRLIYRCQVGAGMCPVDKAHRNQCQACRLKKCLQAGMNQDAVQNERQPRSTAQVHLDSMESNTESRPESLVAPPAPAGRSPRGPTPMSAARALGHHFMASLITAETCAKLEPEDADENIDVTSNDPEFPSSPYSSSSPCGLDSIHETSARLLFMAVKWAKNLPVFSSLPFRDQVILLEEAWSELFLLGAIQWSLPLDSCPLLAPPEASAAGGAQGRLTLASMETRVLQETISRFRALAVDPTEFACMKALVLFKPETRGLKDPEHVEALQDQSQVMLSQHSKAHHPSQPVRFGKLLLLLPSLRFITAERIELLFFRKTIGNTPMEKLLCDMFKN

## COc1ccc(NS(=O)(=O)c2ccc(N3CCOCC3)c(N)c2)cc1
[1]
  AC50: 3.99 µM (active)
[2]
  AC50: 1.08 µM (active)
[3]
  IC50: 1.16 µM (active)
[4]
  AC50: 2.94 µM (active)

## COc1ccc(NC(=O)C(c2ccc(OC)cc2)n2c(=O)c(-c3ccco3)nc3ccccc32)cc1 (stereo unspecified)
[5]
  IC50: 15.7 µM (inactive)

## O=C(N/N=C/c1ccc(Br)s1)c1ccc([N+](=O)[O-])cc1
[6]
  IC50: 9.73 µM (active)
[7]
  EC50: 8.96 µM (active)
[8]
  EC50: 3.76 µM (active)

## COc1ccc(NC(=O)COC(=O)c2c(-c3ccccc3)noc2C)cc1
[9]
  IC50: 5.15 µM (active)
[10]
  IC50: 1.43 µM (active)
[11]
  IC50: 35.9 µM (inactive)
[12]
  AC50: 20 µM (inconclusive)

## Cc1ccnc(NC(=O)CSc2cc(=O)n(C)c3ccccc23)c1
[13]
  EC50: > 79.4 µM (not active)
[14]
  AC50: 1.03 µM (active)
[15]
  IC50: 0.664 µM (active)
[16]
  EC50: > 79.4 µM (not active)
[17]
  EC50: > 79.4 µM (inactive)
[18]
  IC50: > 93.1 µM (not active)

## CCOC(=O)CCCCCC(=O)Nc1ccc2c(c1)C(=O)N([C@@H](C)CO)C[C@@H](C)[C@H](CN(C)C(=O)Nc1ccccc1)OCCCC[C@H](C)O2
[19]
  IC50: 17.3 µM (inactive)

## COc1ccc(/C=C/c2nc(N)nc(-c3ccccc3O)n2)cc1OC
[20]
  IC50: 3.97 µM (active)
[21]
  IC50: > 50 µM (inactive)
[22]
  IC50: 2.69 µM (active)
[23]
  IC50: > 49.8 µM (inactive)
[7]
  EC50: > 60 µM (inconclusive)
[24]
  IC50: 26.9 µM (inactive)
[25]
  IC50: > 66.3 µM (inactive)
[8]
  EC50: 2.09 µM (active)
[26]
  CC50: > 50 µM (active)

## CC(/C=C/c1ccc2c(c1)OCO2)=N/NC(=O)c1ccncc1
[27]
  EC50: 35.5 µM (active)
[28]
  IC50: 51.7 µM (inactive)

## CN(Cc1cnccn1)C(=O)C1CCC(=O)N(CCc2ccccc2)C1 (stereo unspecified)
[19]
  IC50: 17.5 µM (inactive)

## O=C(Nc1ccccc1)[C@@H]1CC=C[C@@H]2CCN(Cc3ccc(Cl)c(Cl)c3)C(=O)[C@@H]21
[20]
  IC50: 4.28 µM (active)
[21]
  IC50: > 50 µM (inactive)
[22]
  IC50: 0.484 µM (active)
[23]
  IC50: > 49.7 µM (inactive)
[24]
  IC50: > 88.8 µM (inactive)
[25]
  IC50: > 66.2 µM (inactive)

## CNC(=O)NC(=O)C(C)OC(=O)c1c2c(nc3ccccc13)/C(=C/c1cccs1)CC2 (stereo unspecified)
[20]
  IC50: 5.01 µM (active)
[21]
  IC50: > 50 µM (inactive)
[22]
  IC50: 4.12 µM (active)
[14]
  AC50: 2.41 µM (active)
[23]
  IC50: > 49.7 µM (inactive)
[24]
  IC50: 8.7 µM (active)
[25]
  IC50: > 66.2 µM (inactive)
[26]
  CC50: > 50 µM (active)

## COc1ccc(NC(=O)CSc2nc(O)c3c(C)cc(C)nc3n2)cc1
[9]
  IC50: 1.37 µM (active)
[10]
  IC50: 1.3 µM (active)
[11]
  IC50: 23.7 µM (inactive)

## CCOC(=O)c1sc2nc(CC(=O)OC)nc(NCc3ccc(Cl)cc3)c2c1C
[3]
  IC50: 3.96 µM (active)

## Cc1csc2nc(O)c(C(=O)NCc3ccc4c(c3)OCO4)c(=O)n12
[6]
  IC50: 80 µM (inactive)

## O=C(O)CC1SC(N/N=C/C=C/c2ccccc2)=NC1=O (stereo unspecified)
[28]
  IC50: 118 µM (inactive)
